Laboratory results taken from patent US7723527B2 (Janssen Pharmaceutica NV, priority 2003, dated 2010).

Biological target: T1, human histamine H4 receptor (Homo sapiens, UniProt Q9H3N8)
T1 construct: expressed in transfected cells; host or cells: SK-N-MC cells or COS7 cells, transiently transfected; cell membranes used
Assay: Binding assay on recombinant human histamine H4 receptor (3H-histamine displacement)
Details: competition binding with 3H-histamine; membranes of SK-N-MC or COS7 cells expressing human H4 receptor; Cheng-Prusoff, KD 5 nM, ligand 5 nM
Method in brief: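 Membranes from SK-N-MC or COS7 cells transiently transfected with human H4R, incubated with ^3H-histamine (5-70 nM) at room temperature for 45 min, nonspecific binding with 10,000 nM histamine. Filtration and scintillation counting; compound affinity from displacement of ^3H-ligand across varying concentrations.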

Structure (SMILES)	Ki
Cc1cccc2[nH]c(-c3ccc(OCCCN4CCCN(C)CC4)cc3Cl)nc12 [Example 31, 2-{2-Chloro-4-[3-(4-methyl-[1,4]diazepan-1-yl)-propoxy]-phenyl}-4-methyl-1H-benzoimidazole]	9 nM
CN1CCN(CCCOc2ccc(-c3nc4cc(Cl)c(F)cc4[nH]3)cc2Cl)CC1 [Example 34, 5-Chloro-2-{3-chloro-4-[3-(4-methyl-piperazin-1-yl)-propoxy]-phenyl}-6-fluoro-1H-benzoimidazole]	112 nM
CN1CCN(CCCOc2ccc(-c3nc4ccccc4[nH]3)cc2F)CC1 [Example 27, 2-{3-Fluoro-4-[3-(4-methyl-piperazin-1-yl)-propoxy]-phenyl}-1H-benzoimidazole]	74 nM
CN1CCN(CCCCOc2cccc(-c3nc4cc(C(C)(C)C)ccc4[nH]3)c2)CC1 [Example 7, 5-tert-Butyl-2-{3-[4-(4-methyl-piperazin-1-yl)-butoxy]-phenyl}-1H-benzoimidazole]	66 nM
Cc1cnc(OCCCCC2CCN(C)CC2)cc1-c1nc2cc(C(C)(C)C)ccc2[nH]1 [Example 167, 5-tert-Butyl-2-{5-methyl-2-[4-(1-methyl-piperidin-4-yl)-butoxy]-pyridin-4-yl}-1H-benzoimidazole]	4 nM
CN1CCN(CCCOc2ccc(-c3nc4cc(F)c(F)cc4[nH]3)cc2F)CC1 [Example 26, 5,6-Difluoro-2-{3-fluoro-4-[3-(4-methyl-piperazin-1-yl)-propoxy]-phenyl}-1H-benzoimidazole]	142 nM
CN1CCN(CCCOc2ccc(-c3nc4cc(Cl)ccc4[nH]3)c(Cl)c2)CC1 [Example 36, 5-Chloro-2-{2-chloro-4-[3-(4-methyl-piperazin-1-yl)-propoxy]-phenyl}-1H-benzoimidazole]	35 nM
Cc1cc2[nH]c(-c3ccc(OCCCN4CCN(C)CC4)c(C)c3)nc2cc1Cl [Example 41, 5-Chloro-6-methyl-2-{3-methyl-4-[3-(4-methyl-piperazin-1-yl)-propoxy]-phenyl}-1H-benzoimidazole]	78 nM
Cc1ccc2[nH]c(-c3ccc(OCCCN4CCN(C)CC4)c(Cl)c3)nc2c1 [Example 39, 2-{3-Chloro-4-[3-(4-methyl-piperazin-1-yl)-propoxy]-phenyl}-5-methyl-1H-benzoimidazole]	66 nM
Cc1cc2[nH]c(-c3ccc(OCCCN4CCCN(C)CC4)c(Cl)c3)nc2cc1Cl [Example 10, 5-Chloro-2-{3-chloro-4-[3-(4-methyl-[1,4]diazepan-1-yl)-propoxy]-phenyl}-6-methyl-1H-benzoimidazole]	89 nM
CCN1CCC(CCCCOc2cc(-c3nc4c(C)c(C)ccc4[nH]3)ccn2)CC1 [Example 154, 2-{2-[4-(1-Ethyl-piperidin-4-yl)-butoxy]-pyridin-4-yl}-4,5-dimethyl-1H-benzoimidazole]	111 nM
Cc1cc2nc(-c3cccc(OCCCCN4CCN(C)CC4)c3)[nH]c2cc1C [Example 29, 5,6-Dimethyl-2-{3-[4-(4-methyl-piperazin-1-yl)-butoxy]-phenyl}-1H-benzoimidazole]	326 nM
Cc1c(Cl)ccc2[nH]c(-c3cc(OCCCCC4CCN(C)CC4)ncc3Br)nc12 [Example 133, 2-{5-Bromo-2-[4-(1-methyl-piperidin-4-yl)-butoxy]-pyridin-4-yl}-5-chloro-4-methyl-1H-benzoimidazole]	12 nM
Cc1cc(C)c2nc(-c3cc(OCCCCC4CCN(C)CC4)ncc3Br)[nH]c2c1 [Example 131, 2-{5-Bromo-2-[4-(1-methyl-piperidin-4-yl)-butoxy]-pyridin-4-yl}-4,6-dimethyl-1H-benzoimidazole]	3 nM
CN1CCN(CCCOc2ccc(-c3nc4cc(Cl)ccc4[nH]3)cc2Cl)CC1 [Example 43, 5-Chloro-2-{3-chloro-4-[3-(4-methyl-piperazin-1-yl)-propoxy]-phenyl}-1H-benzoimidazole]	82 nM
Cc1c(F)ccc2[nH]c(-c3cc(OCCCCC4CCN(C)CC4)ncc3Cl)nc12 [Example 136, 2-{5-Chloro-2-[4-(1-methyl-piperidin-4-yl)-butoxy]-pyridin-4-yl}-5-fluoro-4-methyl-1H-benzoimidazole]	1 nM
Cc1ccc2[nH]c(-c3ccc(OCCCN4CCN(C)CC4)cc3Cl)nc2c1C [Example 1, 2-{2-Chloro-4-[3-(4-methyl-piperazin-1-yl)-propoxy]-phenyl}-4,5-dimethyl-1H-benzoimidazole]	46 nM
CN1CCN(CCCOc2ccc(-c3nc4cc(OC(F)(F)F)ccc4[nH]3)c(Cl)c2)CC1 [Example 3, 2-{2-Chloro-4-[3-(4-methyl-piperazin-1-yl)-propoxy]-phenyl}-5-trifluoromethoxy-1H-benzoimidazole]	21 nM
Cc1cccc2[nH]c(-c3ccnc(OCCCCC4CCN(C)CC4)c3Cl)nc12 [Example 158, 2-{3-Chloro-2-[4-(1-methyl-piperidin-4-yl)-butoxy]-pyridin-4-yl}-4-methyl-1H-benzoimidazole]	21 nM
CN1CCN(CCCCOc2cccc(-c3nc4cc(C(=O)c5ccccc5)ccc4[nH]3)c2)CC1 [Example 56, (2-{3-[4-(4-Methyl-piperazin-1-yl)-butoxy]-phenyl}-1H-benzoimidazol-5-yl)-phenyl-methanone]	324 nM
CN1CCC(CCCCOc2cc(-c3nc4cc(Cl)c(F)cc4[nH]3)c(Br)cn2)CC1 [Example 174, 2-{5-Bromo-2-[4-(1-methyl-piperidin-4-yl)-butoxy]-pyridin-4-yl}-5-chloro-6-fluoro-1H-benzoimidazole]	31 nM

Continued, values first:

Ki	Structure (SMILES)
321 nM	Cc1c(F)ccc2[nH]c(-c3cccc(OCCCOC4CCN(C)CC4)c3)nc12 [Example 102, 6-Fluoro-7-methyl-2-{3-[3-(1-methyl-piperidin-4-yloxy)-propoxy]-phenyl}-1H-benzoimidazole]
67 nM	Cc1cc(Cl)cc2[nH]c(-c3ccc(OCCCC4=CCN(C)CC4)nc3)nc12 [Example 123, 6-Chloro-4-methyl-2-{6-[3-(1-methyl-1,2,3,6-tetrahydro-pyridin-4-yl)-propoxy]-pyridin-3-yl}-1H-benzoimidazole]
6 nM	Cc1cc(OCCCC2CCN(C)CC2)ncc1-c1nc2c(C)cc(Cl)cc2[nH]1 [Example 109, 6-Chloro-4-methyl-2-{4-methyl-6-[3-(1-methyl-piperidin-4-yl)-propoxy]-pyridin-3-yl}-1H-benzoimidazole]
41 nM	Cc1cc(Cl)cc2[nH]c(-c3ccc(OCCCN4CCN(C)CC4)nc3)nc12 [Example 103, 6-Chloro-4-methyl-2-{6-[3-(4-methyl-piperazin-1-yl)-propoxy]-pyridin-3-yl}-1H-benzoimidazole]
12 nM	Cc1cccc2[nH]c(-c3ccc(OCCCC4CCN(C)CC4)nc3)nc12 [Example 106, 4-Methyl-2-{6-[3-(1-methyl-piperidin-4-yl)-propoxy]-pyridin-3-yl}-1H-benzoimidazole]
154 nM	Cc1cc(-c2nc3ccccc3[nH]2)ccc1OCCCN1CCN(C)CC1 [Example 48, 2-{3-Methyl-4-[3-(4-methyl-piperazin-1-yl)-propoxy]-phenyl}-1H-benzoimidazole]
26 nM	Cc1ccc2[nH]c(-c3ccc(OCCCC4CCN(C)CC4)nc3)nc2c1C [Example 107, 4,5-Dimethyl-2-{6-[3-(1-methyl-piperidin-4-yl)-propoxy]-pyridin-3-yl}-1H-benzoimidazole]
39 nM	Cc1cc(OCCCN2CCN(C)CCC2=O)ccc1-c1nc2cc(C(C)(C)C)ccc2[nH]1 [Example 85, 4-{3-[4-(5-tert-Butyl-1H-benzoimidazol-2-yl)-3-methyl-phenoxy]-propyl}-1-methyl-[1,4]diazepan-5-one]
427 nM	Cc1c(Cl)ccc2[nH]c(-c3ccc(OCCCC4=CCN(C)CC4)nc3)nc12 [Example 126, 5-Chloro-4-methyl-2-{6-[3-(1-methyl-1,2,3,6-tetrahydro-pyridin-4-yl)-propoxy]-pyridin-3-yl}-1H-benzoimidazole]
4 nM	Cc1c(F)ccc2[nH]c(-c3ccc(OCCCC4CCN(C)CC4)cc3CO)nc12 [Example 176, {2-(5-Fluoro-4-methyl-1H-benzoimidazol-2-yl)-5-[3-(1-methyl-piperidin-4-yl)-propoxy]-phenyl}-methanol]
278 nM	COc1ccc2[nH]c(-c3ccc(OCCCN4CCN(C)CC4)c(Cl)c3)nc2c1 [Example 51, 2-{3-Chloro-4-[3-(4-methyl-piperazin-1-yl)-propoxy]-phenyl}-5-methoxy-1H-benzoimidazole]
86 nM	Cc1ccc2[nH]c(-c3ccc(OCCCC4CCN(C)CC4)cc3Cl)nc2c1C [Example 59, 2-{2-Chloro-4-[3-(1-methyl-piperidin-4-yl)-propoxy]-phenyl}-4,5-dimethyl-1H-benzoimidazole]
187 nM	COc1cc(-c2nc3cc(Cl)c(F)cc3[nH]2)ccc1OCCCN1CCN(C)CC1 [Example 50, 5-Chloro-6-fluoro-2-{3-methoxy-4-[3-(4-methyl-piperazin-1-yl)-propoxy]-phenyl}-1H-benzoimidazole]
6 nM	Cc1cc(OCCCC2CCN(C)CC2)ncc1-c1nc2c(C)c(C)ccc2[nH]1 [Example 112, 4,5-Dimethyl-2-{4-methyl-6-[3-(1-methyl-piperidin-4-yl)-propoxy]-pyridin-3-yl}-1H-benzoimidazole]
4 nM	Cc1cc(C)c2nc(-c3cnc(OCCCC4CCN(C)CC4)cc3Cl)[nH]c2c1 [Example 118, 2-{4-Chloro-6-[3-(1-methyl-piperidin-4-yl)-propoxy]-pyridin-3-yl}-4,6-dimethyl-1H-benzoimidazole]
121 nM	CN1CCN(CCCOc2ccc(-c3nc4cc5c(cc4[nH]3)OCO5)c(Cl)c2)CC1 [Example 76, 6-{2-Chloro-4-[3-(4-methyl-piperazin-1-yl)-propoxy]-phenyl}-5H-[1,3]dioxolo[4′,5′:4,5]benzo[1,2-d]imidazole]
52 nM	Cc1cc(OCCCC2CCNCC2)ccc1-c1nc2c(C)cc(Cl)cc2[nH]1 [Example 88, 6-Chloro-4-methyl-2-[2-methyl-4-(3-piperidin-4-yl-propoxy)-phenyl]-1H-benzoimidazole]
